Results reported in US7973219B2, “Method for producing transgenic plants resistant to weed control compounds which disrupt the porphyrin pathways of plants” (Sumitomo Chemical Company, Limited, priority 1998, dated 2011).

Assays:
[1] = system: E. coli BT3/pACYCSP+pHASYS4 strain; test: Growth of E. coli BT3/pACYCSP+pHASYS4 with herbicidal compound; assay type: cell-based, Escherichia coli; conditions: 1 ppm, 18 hours culture, Table 16
From the text: According to the description of Gibson, L. C. D. et al., Proc. Natl. Acad. Sci. USA, 92; p 1941 (1995), the DNA fragment containing bchH gene prepared in Example 1 was digested with the restriction enzymes NdeI and BglII. The resultant DNA fragment was inserted between NdeI restriction site and BamHI restriction site of expression vector pET11a (manufactured by Stratagene) to obtain plasmid pETBCH (FIG. 1). This plasmid pETBCH was introduced into E. coli BL21(DE3) strain competent cells (manufactured by Stratagene) according to the manual attached to the competent cells to obtain E. coli BL21(DE3)/pETBCH strain. The strain was inoculated into 1.5 ml LB liquid culture medium (1% tryptone, 0.5% yeast extract, 0.5% NaCl) containing 100 μg/ml ampicillin in a tube (14×10 mm), and the tube was covered with aluminum foil (hereinafter referred to as dark conditions), cultured with shaking at 37° C. under light of fluorescent lamp (about 8000 lux). When the absorbance at 600 nm of the liquid culture medium became about 0.6, isopropyl β-D-thiogalactopyranoside (IPTG) was added to the liquid culture medium so that the final concentration was 0.4 mM, and the culture was continued for about additional 20 hours. […]

[2] = system: E. coli BT3/pACYCSP strain; test: Growth of E. coli BT3/pACYCSP with herbicidal compound (absorbance at 600 nm); assay type: cell-based, Escherichia coli; conditions: 18 hours culture, A600, medium without compound = 1, Table 1
From the text: According to the description of Gibson, L. C. D. et al., Proc. Natl. Acad. Sci. USA, 92; p 1941 (1995), the DNA fragment containing bchH gene prepared in Example 1 was digested with the restriction enzymes NdeI and BglII. The resultant DNA fragment was inserted between NdeI restriction site and BamHI restriction site of expression vector pET11a (manufactured by Stratagene) to obtain plasmid pETBCH (FIG. 1). This plasmid pETBCH was introduced into E. coli BL21(DE3) strain competent cells (manufactured by Stratagene) according to the manual attached to the competent cells to obtain E. coli BL21(DE3)/pETBCH strain. The strain was inoculated into 1.5 ml LB liquid culture medium (1% tryptone, 0.5% yeast extract, 0.5% NaCl) containing 100 μg/ml ampicillin in a tube (14×10 mm), and the tube was covered with aluminum foil (hereinafter referred to as dark conditions), cultured with shaking at 37° C. under light of fluorescent lamp (about 8000 lux). When the absorbance at 600 nm of the liquid culture medium became about 0.6, isopropyl β-D-thiogalactopyranoside (IPTG) was added to the liquid culture medium so that the final concentration was 0.4 mM, and the culture was continued for about additional 20 hours. […] In contrast to this, when E. coli BL21(DE3)/pETBCH strain was cultured according to the same manner (with IPTG) except that the tube was not covered with aluminum foil (hereinafter referred to as light conditions), E. coli grew and turned red as above.
The plasmid pSPPO-P was digested with restriction enzyme PshBI, the resultant DNA fragment was blunted by using T4 DNA polymerase and further digested with SphI to isolate the DNA fragment containing chloroplast-type PPO gene of soybean and lac promoter. Then, the plasmid pACYC184 (manufactured by Nippon Gene) was digested with the restriction enzymes NruI and SphI to remove a fragment of 410 bp and the above DNA fragment was inserted instead to obtain plasmid pACYCSP (FIG. 2). […]
E. coli BT3/pACYCSP strain prepared in Example 3 was inoculated into YPT medium containing 10 or 1 ppm of PPO inhibitory type herbicidal compound represented by the above Structure 8, 10 μg/ml hemin, 50 μg/ml aminolevulinic acid, 15 μg/ml chloramphenicol and 10 μg/ml kanamycin, cultured under dark conditions or light conditions according to the same manner as in Example 2. […] Then, 18 hours after initiation of culture, the absorbance of the liquid culture medium was measured at 600 nm. By taking the absorbance of the medium without the herbicidal compound as 1, the relative value of the absorbance of the medium containing the herbicidal compound was calculated.

SMILES: C#CCOc1cc(N2C(=O)C3=C(CCCC3)C2=O)c(F)cc1Cl [Structure 8]
- Relative absorbance ([1]; in the dark): 1.0
- Relative absorbance ([1]; in the light): 0.91
- Relative absorbance ([2]; in the dark, 1 ppm): 0.95
- Relative absorbance ([2]; in the dark, 10 ppm): 0.73
- Relative absorbance ([2]; in the light, 1 ppm): 0.25
- Relative absorbance ([2]; in the light, 10 ppm): 0.10
